Source: US20210221848A1, “POLYMYXIN DERIVATIVES AND THEIR USE IN COMBINATION THERAPY TOGETHER WITH DIFFERENT ANTIBIOTICS” (priority 2014, published 2021)
Read-outs that look alike come from different tables or passages of the source.

Assays:
K. pneumoniae [1] = experiment: MIC in 1:1 (wt:wt) combination with Rifampicin; format: cell-based, Klebsiella pneumoniae; conditions: 1:1 (wt:wt) with Rifampicin, total drug concentration
Description: (§1) The inoculum was prepared by making a direct suspension of isolated colonies (selected from an 18-24 hour Mueller-Hinton agar plate) adjusted to the 0.5 McFarland standard. […] The assays were performed in duplicate. […] In cases where the duplicate values varied by less than 2-fold, the lower of the two values is reported. If a variation of greater than 2-fold was observed, the assay was considered non-valid. Several of the compounds were subjected to multiple tests, and where this is the case, the MIC reflects the modal value obtained.
(§2) MIC values (microgram/mL) refer to the total drug concentration (i.e. test agent plus Rifampicin).

K. pneumoniae [2] = experiment: MIC in the presence of a fixed concentration (2 μg/mL) of Rifampicin; format: cell-based, Klebsiella pneumoniae; conditions: Rifampicin 2 μg/mL, Table 5C
[3] = system: A. baumanii strains with elevated MICs to Polymyxin B; experiment: MIC against strains with elevated MICs to Polymyxin B; format: cell-based, Acinetobacter baumannii
How it was run: (§3)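 Reported MIC is the lower of duplicates agreeing within 2-fold, or the mode where compounds were tested repeatedly. Assays with greater than 2-fold duplicate variation were rejected. Colonies grown 18-24 hours on Mueller-Hinton agar were suspended to 0.5 McFarland as inoculum.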

A. baumannii [4] = experiment: MIC in 1:1 (wt:wt) combination with Rifampicin; format: cell-based, Acinetobacter baumannii; conditions: 1:1 (wt:wt) with Rifampicin, total drug concentration
Description: as §1, §2

E. coli [5] = experiment: MIC in the presence of a fixed concentration (2 μg/mL) of Rifampicin; format: cell-based, Escherichia coli; conditions: Rifampicin 2 μg/mL, Table 5C
P. aeruginosa [6] = experiment: MIC in 1:1 (wt:wt) combination with Rifampicin; format: cell-based, Pseudomonas aeruginosa; conditions: 1:1 (wt:wt) with Rifampicin, total drug concentration
Description: as §1, §2

[7] = system: E. coli strains with elevated MICs to Polymyxin B; experiment: MIC against strains with elevated MICs to Polymyxin B; format: cell-based, Escherichia coli; conditions: for MIC E. coli 058: strain 058, elevated MIC to Polymyxin B; for MIC E. coli 059: strain 059, elevated MIC to Polymyxin B; for MIC E. coli 060: strain 060, elevated MIC to Polymyxin B; for MIC E. coli 061: strain 061, elevated MIC to Polymyxin B
How it was run: as §3

[8] = system: Pseudomonas aeruginosa ATCC 27853; format: in vivo; conditions: mouse lungs, P. aeruginosa ATCC 27853, SC at 2, 6 and 10 h post-infection, 16 h infection model
P. aeruginosa [9] = system: P. aeruginosa
E. coli [10] = experiment: MIC in 1:1 (wt:wt) combination with Rifampicin; format: cell-based, Escherichia coli; conditions: 1:1 (wt:wt) with Rifampicin, total drug concentration
Description: as §1, §2

[11] = system: Acinetobacter baumannii NCTC 13301; conditions: mouse lungs, A. baumannii NCTC 13301, SC at 2, 6 and 10 h post-infection, 16 h infection model
Description: On Day 0, animals were infected with 0.04 mL inoculum by intranasal instillation into mouse nostrils and were kept in an upright position on a string rack for ˜10 min post-infection. […] The vehicle control group (7 mice) was treated with 0.9% saline for injection at 2, 6 and 10 h post-infection.
Sixteen hours after infection, the mice were euthanized humanely. The lungs of each animal were harvested, homogenized and quantitatively cultured onto CLED agar for CFU determination. Decrease of the total CFU compared to control counts at 16 h post-infection was determined for each dose group.

[12] = system: Acinetobacter baumannii NCTC 13301; conditions: mouse thigh, 16 h model
[13] = system: Escherichia coli ATCC 25922; conditions: mouse thigh, 3.4 mg/kg/dose free base IV at 1, 3.5 and 6 h post-infection, 9 h model
A. baumannii [14] = experiment: MIC in the presence of […] of rifampicin; format: cell-based, Acinetobacter baumannii; conditions: A. baumannii ATCC BAA-747, Table 5C

Substance: Polymyxin B [PMB, reference compound]
- MIC in 1:1 combination with rifampicin, K. pneumoniae 062 (K. pneumoniae [1]; K. pneumoniae 062): 1 microgram/mL
- MIC in 1:1 combination with rifampicin, K. pneumoniae CCUG 59348 (K. pneumoniae [1]; K. pneumoniae CCUG 59348): 1 microgram/mL
- MIC in combination with Rifampicin, K. pneumoniae ATCC 4352 (K. pneumoniae [2]; K. pneumoniae ATCC 4352): 0.06 micrograms/mL
- MIC in combination with Rifampicin, K. pneumoniae ATCC BAA-2146 (K. pneumoniae [2]; K. pneumoniae ATCC BAA-2146): 0.25 micrograms/mL
- MIC A. baumannii 053 ([3]; strain 053, elevated MIC to Polymyxin B, Table 6D): 128 micrograms/mL
- MIC A. baumanii 053 ([3]; strain 053, elevated MIC to Polymyxin B, Table 6F): 128 micrograms/mL
- MIC A. baumannii 056 ([3]; strain 056, elevated MIC to Polymyxin B, Table 6D): 32 micrograms/mL
- MIC A. baumanii 056 ([3]; strain 056, elevated MIC to Polymyxin B, Table 6F): 32 micrograms/mL
- MIC A. baumannii 068 ([3]; strain 068, elevated MIC to Polymyxin B, Table 6D): 8 micrograms/mL
- MIC A. baumanii 068 ([3]; strain 068, elevated MIC to Polymyxin B, Table 6F): 8 micrograms/mL
- MIC A. baumannii 070 ([3]; strain 070, elevated MIC to Polymyxin B, Table 6D): 32 micrograms/mL
- MIC A. baumanii 070 ([3]; strain 070, elevated MIC to Polymyxin B, Table 6F): 32 micrograms/mL
- MIC in 1:1 combination with rifampicin, A. baumannii 053 (A. baumannii [4]; A. baumannii 053): ≤0.5 microgram/mL
- MIC in 1:1 combination with rifampicin, A. baumannii 056 (A. baumannii [4]; A. baumannii 056): ≤0.5 microgram/mL
- MIC in combination with Rifampicin, E. coli ATCC 25922 (E. coli [5]; E. coli ATCC 25922): ≤0.015 micrograms/mL
- MIC in combination with Rifampicin, E. coli NCTC 13441 (E. coli [5]; E. coli NCTC 13441): 0.03 micrograms/mL
- MIC in 1:1 combination with rifampicin, P. aeruginosa 063 (P. aeruginosa [6]; P. aeruginosa 063): 16 microgram/mL
- MIC in 1:1 combination with rifampicin, P. aeruginosa 068 (P. aeruginosa [6]; P. aeruginosa 068): 1 microgram/mL
- MIC E. coli 058 ([7]; Table 6D): 4 micrograms/mL
- MIC E. coli 058 ([7]; Table 6F): 4 micrograms/mL
- MIC E. coli 059 ([7]; Table 6D): 4 micrograms/mL
- MIC E. coli 059 ([7]; Table 6F): 4 micrograms/mL
- MIC E. coli 060 ([7]; Table 6D): 4 micrograms/mL
- MIC E. coli 060 ([7]; Table 6F): 4 micrograms/mL
- MIC E. coli 061 ([7]; Table 6D): 16 micrograms/mL
- MIC E. coli 061 ([7]; Table 6F): 16 micrograms/mL
- Mean log10 CFU reduction vs. control ([8]; 8.6 mg/kg/dose free base): 1.46 log10 CFU
- Mean log10 CFU reduction vs. control ([8]; 17.2 mg/kg/dose free base): 2.87 log10 CFU
- MIC (P. aeruginosa [9]; P. aeruginosa ATCC 27853): 0.5 µg/mL
- MIC, P. aeruginosa ATCC 27853 (P. aeruginosa [9]; P. aeruginosa ATCC 27853, absence of a second agent, Table 6B): 0.5 micrograms/mL
- MIC (P. aeruginosa [9]; P. aeruginosa CCUG 59347): 0.5 µg/mL
- MIC, P. aeruginosa CCUG 59347 (P. aeruginosa [9]; P. aeruginosa CCUG 59347, absence of a second agent, Table 6B): 0.5 micrograms/mL
- MIC, P. aeruginosa ATCC 27853 (P. aeruginosa [9]; strain ATCC 27853, compound alone): 0.5 micrograms/mL
- MIC, P. aeruginosa CCUG 59347 (P. aeruginosa [9]; strain CCUG 59347, compound alone): 0.5 micrograms/mL
- MIC in 1:1 combination with rifampicin, E. coli 058 (E. coli [10]; E. coli 058): 1 microgram/mL
- MIC in 1:1 combination with rifampicin, E. coli 059 (E. coli [10]; E. coli 059): ≤0.5 microgram/mL
- MIC in 1:1 combination with rifampicin, E. coli 060 (E. coli [10]; E. coli 060): 1 microgram/mL
- MIC in 1:1 combination with rifampicin, E. coli ATCC 25922 (E. coli [10]; E. coli ATCC 25922): ≤0.5 microgram/mL
- Mean log10 CFU reduction vs. control ([11]; 2.6 mg/kg/dose free base): 0.79 log10 CFU
- Mean log10 CFU reduction vs. control ([11]; 8.6 mg/kg/dose free base): 0.58 log10 CFU
- Mean log10 CFU reduction vs. control ([11]; 17.2 mg/kg/dose free base): 0.54 log10 CFU
- Mean log10 CFU reduction vs. control ([11]; 25.8 mg/kg/dose free base): 1.10 log10 CFU
- Mean log10 CFU reduction vs. control ([12]; 0.215 mg/kg/dose free base SC at 2, 6 and 10 h post-infection): 0.17 log10 CFU
- Mean log10 CFU reduction vs. control ([12]; 0.86 mg/kg/dose free base SC at 2, 6 and 10 h post-infection): 1.64 log10 CFU
- Mean log10 CFU reduction vs. control ([12]; 2.6 mg/kg/dose free base SC at 2, 6 and 10 h post-infection): 5.44 log10 CFU
- Mean log10 CFU reduction vs. control ([12]; 8.6 mg/kg/dose free base SC at 2, 6 and 10 h post-infection): 6.15 log10 CFU
- Mean log10 CFU reduction vs. control ([12]; 17.2 mg/kg/dose free base SC at 2, 6 and 10 h post-infection): 6.53 log10 CFU
- Mean log10 CFU reduction vs. control [13]: 4.32 log10 CFU
- MIC in combination with Rifampicin, A. baumannii ATCC BAA-747 (A. baumannii [14]): 0.03 micrograms/mL
